Values after ≈ are worked out from the molar mass of the structure shown.
What was measured:
[1] = tested on: Cotinine MAb 3B11A4; test: Competitive microplate ELISA (test principle #1) with immobilized COT MAb and COT-HRP tracer; assay type: binding; conditions: for Reactivity (%): calculated from IC50 values, Cotinine MAb 3B11A4; for IC50: competitor vs COT-HRP for Cotinine MAb 3B11A4
Protocol: (§1) Competitive microplate EIA for quantification of COT (A) and 3HC (B) by test principle #1. Different concentrations of COT or 3HC and fifteen other NIC metabolites were incubated with an immobilized COT MAb or 3HC MAb in the presence of a constant amount of COT-HRP or 3HC-HRP. The binding of the COT-HRP or 3HC-HRP to its corresponding MAb was detected by the reaction of the HRP with peroxidase substrate. The graph illustrates an inhibition curve that was formed with various concentrations of authentic COT (A) and 3HC (B). Apparent COT or 3HC concentrations are inversely related to the OD450 value.
Specificity and sensitivity of the anti-cotinine monoclonal antibody (COT MAb) were determined in competitive microplate ELISA with COT and a battery of NIC metabolites and tobacco alkaloids using COT-HRP as tracer. […] Apparent COT concentrations are inversely related to the OD450 value.

[2] = tested on: 3-Hydroxycotinine MAb 22H9C7; test: Competitive microplate ELISA (test principle #1) with immobilized 3HC MAb and 3HC-HRP tracer; conditions: for Reactivity (%): calculated from IC50 values, 3-Hydroxycotinine MAb 22H9C7; for IC50: competitor vs 3HC-HRP for 3-Hydroxycotinine MAb 22H9C7
Protocol: as §1
As for the anti-cotinine monoclonal antibody, above, specificity and sensitivity of the anti-3-hydroxycotinine monoclonal antibody (3HC MAb) was determined in competitive microplate ELISA with 3HC and a battery of NIC metabolites and tobacco alkaloids using 3HC-HRP as tracer. […] Apparent 3HC concentrations are inversely related to the OD450 value.

| SMILES | Reactivity (%) [1] [%] | IC50 [1] | Reactivity (%) [2] [%] | IC50 [2] |
| --- | --- | --- | --- | --- |
| CN1C(=O)C(O[C@@H]2O[C@H](C(=O)O)[C@@H](O)[C@H](O)[C@H]2O)CC1c1cccnc1 (stereo partly drawn) [3-Hydroxycotinine-gluconuride, 3-hydroxycotinine-glucuronide] | <1.5 | >5,000 ng/mL | <1 | >5,000 ng/mL |
| CN1C(=O)C(O)C[C@H]1c1cccnc1 (stereo partly drawn) [3-Hydroxycotinine] | 1.86 | 3545.0 ng/mL (≈ 18.4 µM) | 100 | 39.8 ng/mL (≈ 0.207 µM) |
| CN1C(=O)CC[C@@]1(O)c1cccnc1 [5-Hydroxycotinine] | 4.39 | 1505.2 ng/mL (≈ 7.83 µM) | <1 | >5,000 ng/mL |
| c1cncc(C2=NCCCC2)c1 [Anabaseine] | <1.5 | >5,000 ng/mL | – | >5,000 ng/mL |
| C1=CCC(c2cccnc2)NC1 (stereo not drawn) [Anatabine] | <1.5 | >5,000 ng/mL | – | >5,000 ng/mL |
| CN1C(=O)CC[C@H]1c1ccc[n+]([O-])c1 [Cotinine-N-Oxide, cotinine-N-oxide] | <1.5 | >5,000 ng/mL | <1 | >5,000 ng/mL |
| CN1C(=O)CCC1c1ccc[n+](C2OC(C(=O)[O-])C(O)C(O)C2O)c1 (stereo not drawn) [Cotinine-gluconuride, cotinine-glucuronide] | <1.5 | >5,000 ng/mL | <1 | >5,000 ng/mL |
| CN1C(=O)CC[C@H]1c1cccnc1 [Cotinine] | 100 | 66.1 ng/mL (≈ 0.375 µM) | <1 | >5,000 ng/mL |
| c1cncc(C2=NCCC2)c1 [Myosmine] | <1.5 | >5,000 ng/mL | – | >5,000 ng/mL |
| c1cncc(-c2ccnc(-c3cccnc3)c2)c1 [Nicotelline] | <1.5 | >5,000 ng/mL | – | >5,000 ng/mL |
| CN1CCCC1c1ccc[n+]([O-])c1 (stereo not drawn) [Nicotine-N-Oxide, Nicotine-N-oxide] | <1.5 | >5,000 ng/mL | <1 | >5,000 ng/mL |
| CN1CCC[C@H]1c1ccc[n+]([C@@H]2O[C@H](C(=O)[O-])[C@@H](O)[C@H](O)[C@H]2O)c1 [Nicotine-gluconuride, Nicotine-glucuronide] | <1.5 | >5,000 ng/mL | <1 | >5,000 ng/mL |
| CN1CCCC1c1cccnc1 (stereo not drawn) [Nicotine] | <1.5 | >5,000 ng/mL | <1 | >5,000 ng/mL |
| Cn1cccc1-c1cccnc1 [Nicotyrine] | <1.5 | >5,000 ng/mL | – | >5,000 ng/mL |
| O=C1CCC(c2cccnc2)N1 (stereo not drawn) [Norcotinine] | <1.5 | >5,000 ng/mL | – | >5,000 ng/mL |
| c1cncc([C@@H]2CCCN2)c1 [Nornicotine] | <1.5 | >5,000 ng/mL | – | >5,000 ng/mL |

Source: patent publication US20110305715A1, “ANTIBODIES TO 3-HYDROXYCOTININE AND METHODS OF USE THEREOF” (priority 2010, published 2011)
